# In publication PMC10301432, “Antiplasmodial, Trypanocidal, and Genotoxicity In Vitro Assessment of New Hybrid α,α-Difluorophenylacetamide-statin Derivatives” (Pharmaceuticals, 2023):
# How the values were obtained:
# [1] = tested on: Salmonella enterica serovar Typhimurium TA104; assay: Salmonella/microsome assay, TA104
# Protocol: (§1) Salmonella enterica serovar Typhimurium (S. typhimurium) strains TA97, TA98, TA100, TA104 and TA102 from the authors’ stock were used as described in the mutagenicity assay.
# (§2) To determine the cytotoxic effects, after 30 min pre-incubation, the assay mixtures were diluted in 0.9% NaCl (w/v) to obtain a suspension containing 2 × 10^2 cells/mL. […] The plates were then incubated at 37 °C for 24 h and the colonies counted. All the experiments were conducted in triplicate and were repeated at least twice. Statistical differences between the groups were analyzed by a two-way ANOVA (p < 0.05) and Tukey’s post hoc test.
# [2] = tested on: intracellular forms of T. cruzi (Tulahuen strain transfected with β-galactosidase); assay: Activity against intracellular T. cruzi in L929 cells; type: cell-based, Trypanosoma cruzi
# Protocol: Tissue culture-derived trypomastigotes (Tulahuen strain expressing the E. coli β-galactosidase gene) were maintained in L929 cell lines and collected from the supernatant after 96 h of parasite infection, following previously established protocols. Briefly, after 24 h of L929 platting (4 × 10^3 cells/well), the cultures were incubated with trypomastigotes (10:1 parasite/host cell ratio) for 2 h at 37 °C. Then, the cell cultures were rinsed to remove non-internalized parasites and then further incubated for 24 h at 37 °C. Then the infected cultures were followed using two sequential protocols. […] After this period, 50 µL chlorophenol red glycoside (500 µM) in 0.5% Nonidet P40 was added to each well and the plate was incubated for more than 18 h at 37 °C, after which the absorbance was measured at 570 nm. […] Controls with untreated and Bz-treated cells are run in parallel. The results were expressed as the percent difference in the reduction between treated and untreated cells.
# in vitro = details: Salmonella enterica serovar Typhimurium, pH 7.4
# [3] = tested on: trypomastigote forms of T. cruzi (Y strain); assay: Trypanocidal activity on bloodstream trypomastigotes; type: cell-based, Trypanosoma cruzi
# Protocol: (§3) Bloodstream trypomastigote forms (BT) of the Y strain were obtained from infected albino Swiss mice at the peak of parasitemia, isolated by differential centrifugation and resuspended in DMEM to a parasite concentration of 10^7 cells/mL in the presence of 10% of mouse blood. This suspension (100 µL) was added in the same volume of 13 (a–d) and 14 (a–d) previously prepared at twice the desired final concentrations.
# [4] = tested on: Salmonella enterica serovar Typhimurium TA98; assay: Salmonella/microsome assay, TA98
# Protocol: as §1, §2
# [5] = Salmonella/microsome assay, TA98; details: Salmonella enterica serovar Typhimurium, S. typhimurium TA98 without S9 mix, pH 7.4
# Protocol: as §1, §2
# T. cruzi = assay: Trypanocidal in vitro phenotypic screening, overall outcome; type: cell-based, Trypanosoma cruzi; details: summarized outcome
# Protocol: as §3
# Tissue culture-derived trypomastigotes (Tulahuen strain expressing the E. coli β-galactosidase gene) were maintained in L929 cell lines and collected from the supernatant after 96 h of parasite infection, following previously established protocols. Briefly, after 24 h of L929 platting (4 × 10^3 cells/well), the cultures were incubated with trypomastigotes (10:1 parasite/host cell ratio) for 2 h at 37 °C. Then, the cell cultures were rinsed to remove non-internalized parasites and then further incubated for 24 h at 37 °C. Then the infected cultures were followed using two sequential protocols. […] After this period, 50 µL chlorophenol red glycoside (500 µM) in 0.5% Nonidet P40 was added to each well and the plate was incubated for more than 18 h at 37 °C, after which the absorbance was measured at 570 nm. Then, the compounds were next evaluated using dose–response assays in which Tulahuen-infected-L929 cells were exposed to different non-toxic concentrations of each compound (0–50 µM) and then after 96 h of incubation the same procedure was conducted as above reported. Controls with untreated and Bz-treated cells are run in parallel. The results were expressed as the percent difference in the reduction between treated and untreated cells.
# [6] = Salmonella/microsome assay, TA97; details: Salmonella enterica serovar Typhimurium, S. typhimurium TA97 without S9 mix, pH 7.4
# Protocol: as §1, §2
# [7] = tested on: Salmonella enterica serovar Typhimurium TA100; assay: Salmonella/microsome assay, TA100
# [8] = Salmonella/microsome assay, TA100; details: Salmonella enterica serovar Typhimurium, S. typhimurium TA100 without S9 mix, pH 7.4
compound,measurement,setting,value
"CC(=O)Nc1ccc(Br)cc1C(F)(F)C(=O)NCC[C@@H]1C[C@H](CC(=O)OC(C)(C)C)OC(C)(C)O1 [Compound 13d, tert-Butyl 2-((4R,6R)-6-(2-(2-(2-acetamido-5-bromophenyl)-2,2-difluoroacetamido)ethyl)-2,2-dimethyl-1,3-dioxan-4-yl)acetate]",revertant His+ colonies TA104,"[1]; +S9, 3 µM",490 ± 52
same,revertant His+ colonies TA104,"[1]; +S9, 15 µM",513 ± 19
same,revertant His+ colonies TA104,"[1]; +S9, 30 µM",530 ± 7
same,revertant His+ colonies TA104,"[1]; +S9, 150 µM",541 ± 29
same,revertant His+ colonies TA104,"[1]; +S9, 300 µM",589 ± 5
same,revertant His+ colonies TA104,"[1]; +S9, 1500 µM",591 ± 11
same,revertant His+ colonies TA104,"[1]; −S9, 3 µM",469 ± 65
same,revertant His+ colonies TA104,"[1]; −S9, 15 µM",515 ± 61
same,revertant His+ colonies TA104,"[1]; −S9, 30 µM",570 ± 53
same,revertant His+ colonies TA104,"[1]; −S9, 150 µM",605 ± 61
same,revertant His+ colonies TA104,"[1]; −S9, 300 µM",615 ± 15
same,revertant His+ colonies TA104,"[1]; −S9, 1500 µM",620 ± 31
same,SI,[2]; LC50 (L929)/EC50 (intracellular forms),10
same,EC50,"[2]; Trypanosoma cruzi, TULAHUEN, L929, 96 h, intracellular forms, Tulahuen strain, 96 h",11.4 ± 3.29 µM
same,CC50,in vitro,14.7 ± 1.8 µM
same,SI,[3]; LC50 (cardiac cells)/EC50 (trypomastigotes),>21.6
same,EC50,"[3]; Trypanosoma cruzi, bloodstream trypomastigotes, Y strain, 24 h at 37 °C",23.2 ± 3.13 µM
same,revertant His+ colonies TA98,"[4]; +S9, 3 µM",28 ± 1
same,revertant His+ colonies TA98,"[4]; +S9, 15 µM",28 ± 5
same,revertant His+ colonies TA98,"[4]; +S9, 30 µM",31 ± 7
same,revertant His+ colonies TA98,"[4]; +S9, 150 µM",34 ± 2
same,revertant His+ colonies TA98,"[4]; +S9, 300 µM",34 ± 4
same,revertant His+ colonies TA98,"[4]; +S9, 1500 µM",35 ± 3
same,revertant His+ colonies TA98,"[4]; −S9, 3 µM",22 ± 7
same,revertant His+ colonies TA98,"[4]; −S9, 15 µM",23 ± 5
same,revertant His+ colonies TA98,"[4]; −S9, 30 µM",25 ± 1
same,revertant His+ colonies TA98,"[4]; −S9, 150 µM",25 ± 1
same,revertant His+ colonies TA98,"[4]; −S9, 300 µM",27 ± 5
same,revertant His+ colonies TA98,"[4]; −S9, 1500 µM",Cytotoxic
same,CC50 at 30 min,[5],1260 ± 46.8 µM
same,Trypanocidal Activity,T. cruzi,Yes
same,CC50 at 30 min,[6],1490 ± 36.5 µM
same,revertant His+ colonies TA100,"[7]; +S9, 3 µM",156 ± 18
same,revertant His+ colonies TA100,"[7]; +S9, 15 µM",166 ± 11
same,revertant His+ colonies TA100,"[7]; +S9, 30 µM",173 ± 1
same,revertant His+ colonies TA100,"[7]; +S9, 150 µM",174 ± 21
same,revertant His+ colonies TA100,"[7]; +S9, 300 µM",181 ± 15
same,revertant His+ colonies TA100,"[7]; +S9, 1500 µM",Cytotoxic
same,revertant His+ colonies TA100,"[7]; −S9, 3 µM",99 ± 4
same,revertant His+ colonies TA100,"[7]; −S9, 15 µM",96 ± 12
same,revertant His+ colonies TA100,"[7]; −S9, 30 µM",93 ± 1
same,revertant His+ colonies TA100,"[7]; −S9, 150 µM",Cytotoxic
same,CC50 at 30 min,[8],120 ± 14.1 µM
